Results on two compounds are retold here after patent US5633230A, “Treatment of cytomegalovirus infection” (priority 1994, dated 1997).

Data set [1] concerns CMV strain AD-169. The data set can be described thus: plaque reduction assay, CMV AD-169 in MRC-5 cells. The data set is classed as cell-based, human CMV. Particulars: Human betaherpesvirus 5, AD169, MRC5, CMV AD-169, MRC-5 (human embryonic lung), 24 h drug pretreatment. The method, then:
(§1) The following procedures were then used to determine inhibitory effects of AV-9 on the replication of CMV. […] This was accomplished by diluting the stock peptide solution in growth medium (10% fetal bovine serum and 10 μg/ml gentamicin in Dulbecco's MEM (DMEM)) used to overlay the monolayers.
After pretreatment with AV-9, the monolayers were overlaid with 0.1 ml log10 dilutions of virus (CMV strain AD-169) ranging from 10^-1 to 10^-6. Virus was then allowed to adsorb for 1 hour at 37° C. The virus inoculum was removed and the monolayers were overlayed with DMEM containing 2% FBS, 10 ug/ml gentamicin and a specified concentration of AV-9. Virus was next allowed to replicate for 7 to 10 days until the plaques were judged to be well developed, and then the monolayers were fixed and stained with a solution of 1% crystal violet in 1% formaldehyde,70% ethanol. Finally, plaques (each representing a single viable virion) were counted and checked microscopically.
(§2) In a like manner, plaque reduction assays were also performed against other CMV strains and another CMV host, with comparison against ganciclovir (GCV) and foscarnet (FCV).

The test system of another data set is CMV strain PFA^r D100. The data set can be described thus: plaque reduction assay, foscarnet-resistant strain PFA^r D100. Particulars: Human betaherpesvirus 5, MRC5. The data set is classed as cell-based, human CMV. The method, then:
(§3) The anti-CMV activity of peptide AV-9 was evaluated against two ganciclovir-resistant and two foscarnet-resistant laboratory strains of human CMV in the continuous, human embryonic lung cell line MRC-5.
(§4) To perform the studies, peptide AV-9 was dissolved as a solid in sterile, deionized water to a final stock concentration of 10 mM. This stock solution was subsequently diluted in cell culture medium to obtain the test concentrations used in the study. Ganciclovir (GCV) was dissolved in sterile, deionized water, and the drug concentration measured spectrophotometrically (7.8mM). Foscarnet (phosphonoformic acid, PFA) was dissolved in sterile, deionized water to a final concentration of 100 mM. Aliquots of the stock solutions were stored at -70° C.
(§5) Drug-resistant human CMV strains 759^r D100, GDG^r K17, PFA^r D100 and PFA^r B300 were obtained from Dr. Donald M. Coen, Harvard Medical School, Boston, Mass. […]
(§6) Anti-CMV activity of peptide AV-9, ganciclovir (GCV) and foscarnet (PFA) was assessed by standard plaque reduction assay using 24-well microtiter plates. […]
(§7) MRC-5 cells (4-5×10^5 per well) were grown for 24 hours at 37° C. in 5% CO2 atmosphere in D-MEM/F-12FBS medium containing varying concentrations of drug. […] Vital plaques were counted under a microscope after removing the culture medium from the wells, staining the cells with 1.1% Crystal Violet solution, and washing twice with tap water. […]
(Plaque reduction counts the foci of infection that form in a cell layer.)

A further data set deals with CMV strain PFA^r B300. In words: plaque reduction assay, foscarnet-resistant strain PFA^r B300. Particulars: Human betaherpesvirus 5, MRC5. The class given is cell-based, human CMV. The method, then: as §3, §4, §5, §6, §7
Data set [2] concerns CMV strain AD-169. The data set can be described thus: CPE assay, CMV AD-169 in HFF cells. Particulars: Human betaherpesvirus 5, AD169, CMV AD-169, HFF (human foreskin fibroblast), without 24 h drug pretreatment. The data set is classed as cell-based. The text has this: *CPE assay, all others are plaque reduction assays.
Data set [3] deals with Smith strain of murine CMV. In words: murine CMV infection in cyclophosphamide-immunosuppressed mice. The data set is classed as in vivo, BALB/c mice. From the text: This immunosuppression model mimics the human patient situation, wherein the HCMV-induced disease in immunosuppressed individuals can often be fatal. The particular model used for evaluating potential antiviral activity has been described by Smee et al in J. Infect. Dis., 1991, 164: 958.
The Smith strain of murine CMV, obtained originally from the American Type Culture Collection (Rockville, Md.) was used. A mouse salivary gland preparation was used for the virus pool. An inoculation of 2×10^4 plaque forming units of the virus was used in the antiviral study. Female BALB/c mice weighing 10-12 g were quarantined 24 hr prior to use, and maintained on Wayne Lab Blox and tap water ad libitum the duration of the study.
Ganciclovir (DHPG) was purchased from a commercial source, and cyclophosphamide was purchased from Sigma Chemical Co. (St. Louis, Mo.).
To determine tissue virus titre, homogenates of infected mouse organs were titrated for virus using C127/I cells in 96-well microplates. Each tissue sample was homogenized and titrated separately with 3 micro wells used per dilution; plates were read by microscopic examination for viral-induced cytopathic effect, with 50% end points determined by the Reed-Muench method. Mean viral titers were expressed at 50% cell culture infectious doses (CCID50)/gram of tissue.
For statistical evaluation, increases in mean day to death and reductions in viral titers were assessed using the two-tailed Mann-Whitney U test. Total survivor increases were evaluated by chi square analysis with Yates'.

Data set [4] can be described thus: toxicity control mice, immunosuppressed, uninfected.
Description: The mice were immunosuppressed by intraperitoneal (i.p.) injection with 100 mg/kg/day of cyclophosphamide administered on days -1, +3, +6, +10, +14 and +18 relative to virus inoculation. […] In a second portion of the study, the compound was administered i.p. in a dose of 0.1 mg/kg/day once daily from day -2 through +10. Ganciclovir in a dose of 50 mg/kg/day was injected i.p. once daily for 10 days beginning 24 hr post-virus exposure (days +1→+10). A total of 15 infected mice/dose were used. […] Five toxicity control mice were used at each dose; these mice were treated in parallel with the infected mice, and were weighed on the initial day of treatment and again 24 after the final treatment. […] Normal controls were weighed and held in parallel with the toxicity controls.
Another data set concerns CMV strain 759^r D100. In words: plaque reduction assay, ganciclovir-resistant strain 759^r D100. Particulars: Human betaherpesvirus 5, MRC5. The class given is cell-based, human CMV. The method, then:
as §3, §4, §5, §6, §7

The test system of a further data set is CMV strain GDG^r K17. In words: plaque reduction assay, ganciclovir-resistant strain GDG^r K17. The data set is classed as cell-based, human CMV. Particulars: Human betaherpesvirus 5, MRC5. The method, then:
as §3, §4, §5, §6, §7

Data set [5] concerns CMV strain AD-169. In words: plaque reduction assay, CMV AD-169 in HFF cells. Particulars: Human betaherpesvirus 5, AD169, CMV AD-169, HFF. The class given is cell-based, human CMV. The method, then: as §1
[…] Virus was then allowed to adsorb for 1 hour at 37° C. The virus inoculum was removed and the monolayers were overlayed with DMEM containing 2% FBS, 10 ug/ml gentamicin and a specified concentration of AV-9. Virus was next allowed to replicate for 7 to 10 days until the plaques were judged to be well developed, and then the monolayers were fixed and stained with a solution of 1% crystal violet in 1% formaldehyde,70% ethanol. Finally, plaques (each representing a single viable virion) were counted and checked microscopically.
as §2

[6] abbreviates: 50 mg/kg/day i.p. days +1 to +10, 9 days after virus challenge.

As to `O=C(O)P(=O)(O)O` [FCV, phosphonoformic acid], the values for the 50% inhibitory concentration (IC50) in the data set on CMV strain AD-169 [1], in the data set on CMV strain PFA^r D100 and in the data set with CMV strain PFA^r B300 were 96 µM, 234 µM and 385 µM, respectively.
For `Nc1nc2c(ncn2COC(CO)CO)c(=O)[nH]1` [GCV, 9-[(1,3-dihydroxy-2-propoxy)methyl]guanine, reference compound], the IC50 (in general, the midpoint of a concentration-inhibition curve) with CMV strain AD-169 [2] amounted to 5.8 µM; with CMV strain 759^r D100, 30.5 µM; in the data set on CMV strain GDG^r K17, 6.1 µM; in the data set with CMV strain AD-169 [5] it was 2 µM. Further, the “days after initiation of infection until first deaths” value in data set [3] (50 mg/kg/day i.p. days +1 to +10) was at least 21 days. In addition, in [3] (setting [6]), the “Tissue Virus Titer ± S.D., Lung” value was determined as 0 ± 0.0 log10 CCID50/g. Further, in data set [3] (setting [6]), the “Tissue Virus Titer ± S.D., Salivary Gland” value amounted to 3.5 ± 0.9 log10 CCID50/g. The “Tissue Virus Titer ± S.D., Spleen” value in [3] (setting [6]) was 0.5 ± 1.2 log10 CCID50/g. Moreover, the Surv/Total in data set [3] (infected mice, 50 mg/kg/day i.p., days +1 through +10) is recorded as 0/10; in [4] (toxicity controls, 50 mg/kg/day i.p., days +1 through +10) it was 5/5. Besides, the “Mean Day to Death ± S.D.” value in data set [3] (infected mice, 50 mg/kg/day i.p., days +1 through +10, P<0.01 vs saline) worked out at 22.9 ± 1.1 days. Also, in data set [4] (50 mg/kg/day i.p. days +1 to +10, start of treatment to 24 hr after final treatment), the “Mean Body Weight Change” value is recorded as 4.2 g.
